Results on nine molecules are retold here after PMC8440923, “Peptides Targeting the Interaction Between Erb1 and Ytm1 Ribosome Assembly Factors” (Frontiers in Molecular Biosciences, 2021).

Test [1] concerns the target T1, Erb1/Ytm1 complex (Thermochaetoides thermophila, UniProt G0SCK6).
T1 construct: 6xHis; made in house; host or cells: Erb1: Escherichia coli (DE3) BL21 CodonPlus (RIPL); Ytm1: Sf9 insect cells (baculovirus)
The test is described as follows: Biolayer interferometry peptide interference assay, immobilized Ytm1, Erb1 analyte preincubated with P4-P6. Format: binding, Chaetomium thermophilum. The settings on record: BLI, 20 µM Erb1 preincubated with equimolar peptide, reference without peptide 1.201e-3. (In BLI a coated tip is dipped into the sample, and binding shifts an interference pattern.)

For a further test, the system named is Erb1. The test is described as follows: Biolayer interferometry peptide affinity assay, immobilized biotinylated peptide, Erb1 analyte. Format: binding, Chaetomium thermophilum. The settings on record: BLI, streptavidin biosensor, Erb1 as analyte. The procedure: (§1) Peptides were commercially obtained from Synpeptide Co., Ltd., Shanghai, China. All experiments have been made in triplicates and include control curves for bait and analyte only.
BLI was used to determine the affinity between Ytm1 and biotinylated peptides using streptavidin biosensors (FortéBio). The biosensors were hydrated 10 min in the same buffer used on the interference assay, with 0.05% (w/v) bovine serum albumin (BSA). 50 µg/ml of biotinylated peptide was immobilized at the streptavidin biosensor. Increasing concentrations of Ytm1 were used to calculate the KD values using the Blitz Pro 1.2 software using the implemented equations for association and dissociation: […]
According to P1, P3, and P6 results, a new N-terminal biotynilated peptide synthesis was ordered using the same sequences (Biot-P1, Biot-P3, and Biot-P6, Table 1). Biotynilated peptides Biot-P1 and Biot-P3 were immobilized to the streptavidin biosensor and Ytm1 binding was measured. Similarly, Biot-P6 was immobilized to the streptavidin biosensor followed by Erb1 binding. […] To further confirm the interaction a differential scanning fluorimetry assay was performed. […] Inconsistent results were obtained in DSF using Erb1 and a proper Tm could not be obtained so thermal shift could not be evaluated for P6.

The target in test [2] is T2, Ytm1 (Thermochaetoides thermophila, UniProt G0SFB5).
T2 construct: 6xHis; made in house; host or cells: Sf9 insect cells (baculovirus)
T2 sequence (G0SFB5 1-495): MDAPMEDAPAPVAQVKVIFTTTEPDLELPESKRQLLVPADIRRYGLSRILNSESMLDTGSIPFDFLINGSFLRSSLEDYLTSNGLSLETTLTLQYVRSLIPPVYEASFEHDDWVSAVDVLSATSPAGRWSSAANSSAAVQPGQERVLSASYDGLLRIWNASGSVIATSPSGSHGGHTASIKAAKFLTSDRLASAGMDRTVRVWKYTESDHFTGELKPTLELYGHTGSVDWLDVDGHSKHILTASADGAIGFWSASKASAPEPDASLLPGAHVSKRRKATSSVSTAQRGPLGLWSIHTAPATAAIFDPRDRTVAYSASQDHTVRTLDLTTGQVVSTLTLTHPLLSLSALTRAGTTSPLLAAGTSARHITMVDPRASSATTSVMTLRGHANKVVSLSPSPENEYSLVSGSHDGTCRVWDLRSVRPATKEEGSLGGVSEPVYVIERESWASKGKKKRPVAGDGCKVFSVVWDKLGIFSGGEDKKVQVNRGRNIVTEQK
The test can be described thus: Biolayer interferometry peptide affinity assay, immobilized biotinylated peptide, Ytm1 analyte. Particulars: BLI, streptavidin biosensor, 50 µg/ml biotinylated peptide immobilized, read-out: ka (1/Ms) of Ytm1 binding to immobilized biotinylated peptide. Set-up: species or system Chaetomium thermophilum. The procedure: as §1
BLI was used to determine the affinity between Ytm1 and biotinylated peptides using streptavidin biosensors (FortéBio). The biosensors were hydrated 10 min in the same buffer used on the interference assay, with 0.05% (w/v) bovine serum albumin (BSA). 50 µg/ml of biotinylated peptide was immobilized at the streptavidin biosensor. Increasing concentrations of Ytm1 were used to calculate the KD values using the Blitz Pro 1.2 software using the implemented equations for association and dissociation:
Association phase: y=Rmax 1/1+kd/ka∗[Analyte](1−e^−(ka∗[Analyte]+kd)x) .
Dissociation phase: y=y0 e^−kd(x−x0). y0=Rmax 1/1+kd/ka∗[Analyte](1−e^−(ka∗[Analyte]+kd)x0).
According to P1, P3, and P6 results, a new N-terminal biotynilated peptide synthesis was ordered using the same sequences (Biot-P1, Biot-P3, and Biot-P6, Table 1). Biotynilated peptides Biot-P1 and Biot-P3 were immobilized to the streptavidin biosensor and Ytm1 binding was measured. Similarly, Biot-P6 was immobilized to the streptavidin biosensor followed by Erb1 binding. […] Inconsistent results were obtained in DSF using Erb1 and a proper Tm could not be obtained so thermal shift could not be evaluated for P6.

In test [3] the target is T3, Erb1/Ytm1 complex (Thermochaetoides thermophila, UniProt G0SFB5).
T3 construct: 6xHis; made in house; host or cells: Ytm1: Sf9 insect cells (baculovirus); Erb1: Escherichia coli (DE3) BL21 CodonPlus (RIPL)
T3 sequence (G0SFB5 1-495): T2 sequence (G0SFB5 1-495)
The test is described as follows: Biolayer interferometry peptide interference assay, immobilized Erb1, Ytm1 analyte preincubated with P1-P3. The format is binding, Chaetomium thermophilum. The settings on record: BLI, 5 µM Ytm1 preincubated with equimolar peptide, reference without peptide 1.724e-3. The method, then:
as §1
Potential interference peptide samples were evaluated by their ability to interfere the kinetics and affinity of the complex between Erb1 and Ytm1 as measured by Biolayer Interferometry (BLItz, Pall FortéBio Corp.) using Ni-NTA biosensors (FortéBio) and 50 mM HEPES, pH 7.5; 150 mM NaCl; 5% (v/v) glycerol; and 2 mM β-mercaptoethanol (BME) buffer. To set the reference KD, an 80 µg/ml solution of Erb1 was immobilized to the biosensor in order to obtain binding curves for increasing concentrations of Ytm1. According to this, an evaluation of Erb1-derived peptides (P1–P3) was performed using 5 µM Ytm1 previously incubated during 30 min at equimolar concentrations of each peptide. New KD values were determined. […]
Biolayer interferometry interference assays were used to evaluate the ability of each peptide to interfere in the in vitro formation of the Erb1/Ytm1 complex. […] Peptides were evaluated for their ability to decrease in the Erb1/Ytm1 complex formation by preincubating the analyte with each peptide derived from the immobilized partner. […] Erb1-derived peptides were evaluated by their ability to decrease Erb1/Ytm1 complex affinity. […]

In test [4] the target is T2, Ytm1. The test is described as follows: Differential scanning fluorimetry (thermofluor) of Ytm1 with peptide. Format: binding, Chaetomium thermophilum. The settings on record: DSF, SYPRO Orange 1:1,000; 5 µM Ytm1, 1 mM peptide; 50 mM HEPES pH 7.5, 150 mM NaCl; 20-85°C at 1°C/min; triplicates. The procedure: Thermofluor assays ([Pantoliano et al., 2001]) were performed on a 7,500 Fast Real-Time PCR System (Applied Biosystems) measuring the gradual fluorescence generated by a 1:1,000 dilution of SYPRO Orange Protein Stain Gel (Supelco, Merck-Sigma) along with 1°C/min temperature increase from 20°C until 85°C.
The samples were mixed containing the protein Ytm1 at 5 µM in 50 mM HEPES pH 7.5, 150 mM NaCl and peptides P1-P3 at 1 mM concentration. Previously, lyophilized P2 and P3 were resuspended in the same Ytm1 buffer and P1 was solubilized in 10 mM Tris (hydroxymethyl)-methylamine (Tris-HCl), pH 8.8 for P1. Data of triplicated experiments were analyzed using GraphPad Prism 5.01 software.
In general terms: In DSF a fluorescence change marks the thermal transition of the protein.

The target of test [5] is T4, Ytm1 (Chaetomium thermophilum ribosome assembly factor) (Chaetomium thermophilum, UniProt G0SFB5 1-495).
T4 chain: T2 sequence (G0SFB5 1-495)
The test is described as follows: BLI.

The target of test [6] is T5, Ytm1 (Chaetomium thermophilum ribosome assembly factor) (Chaetomium thermophilum, UniProt G0SFB5 1-495).
T5 construct: Ytm1, Chaetomium thermophilum; YTM1 gene amplified from total cDNA and cloned in pOPIN-F; For MST, Ytm1 was labelled with the Red-NHS second-generation dye; source: Sf9 insect cells (baculovirus), purified (Histrap-HP Ni, Superdex 200 SEC)
T5 sequence: T2 sequence (G0SFB5 1-495)
The test is described as follows: BLI; biotinylated peptide (50 µg/ml) immobilised on streptavidin biosensor; Ytm1 (or Erb1 for Biot-P6) as analyte; interference-assay buffer with 0.05% BSA. Particulars: both partners purified.

The target of test [7] is T5, Ytm1 (Chaetomium thermophilum ribosome …). The test can be described thus: MST; 5 nM Ytm1 labelled with Red-NHS second-generation dye; 50 mM HEPES pH 7.5, 150 mM NaCl, 0.1% Pluronic F-127; peptide in sixteen serial dilutions (P1 1,230-0.0751 µM; P3 maximum 1,580 µM); Monolith NT.115. Particulars: both partners purified.

Residues, ends and D or L forms follow the SMILES beside them. No end group written: not given here. *: point of attachment. Biotin = O=C1N[C@H]2[C@H](CS[C@H]2CCCCC(=O)*)N1

T1 sequence (G0SCK6 whole entry, one chain of several): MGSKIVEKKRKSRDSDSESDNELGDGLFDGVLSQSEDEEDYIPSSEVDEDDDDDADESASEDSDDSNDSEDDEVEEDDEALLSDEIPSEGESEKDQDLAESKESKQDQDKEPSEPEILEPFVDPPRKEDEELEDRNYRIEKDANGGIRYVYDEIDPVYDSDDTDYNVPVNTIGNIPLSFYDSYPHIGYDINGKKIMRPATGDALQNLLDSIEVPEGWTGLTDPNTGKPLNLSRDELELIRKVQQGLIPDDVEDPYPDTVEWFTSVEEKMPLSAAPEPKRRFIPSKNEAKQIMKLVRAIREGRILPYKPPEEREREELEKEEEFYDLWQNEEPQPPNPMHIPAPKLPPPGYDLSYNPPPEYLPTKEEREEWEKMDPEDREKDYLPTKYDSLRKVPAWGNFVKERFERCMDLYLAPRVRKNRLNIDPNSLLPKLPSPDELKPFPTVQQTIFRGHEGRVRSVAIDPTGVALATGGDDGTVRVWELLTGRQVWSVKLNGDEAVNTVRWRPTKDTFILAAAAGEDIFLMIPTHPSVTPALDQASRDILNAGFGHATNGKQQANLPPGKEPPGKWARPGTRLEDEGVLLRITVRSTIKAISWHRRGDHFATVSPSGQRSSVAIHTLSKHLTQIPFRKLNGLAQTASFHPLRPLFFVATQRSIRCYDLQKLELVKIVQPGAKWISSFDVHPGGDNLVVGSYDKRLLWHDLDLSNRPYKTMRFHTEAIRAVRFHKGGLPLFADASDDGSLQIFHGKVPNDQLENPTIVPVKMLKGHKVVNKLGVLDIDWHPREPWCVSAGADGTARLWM

As to “AGMDRTV [Peptide P5, Ytm1-derived peptide AGMDRTV, residues 194–200]”, the “kd (1/s) of Ytm1/Erb1 binding after preincubation of Erb1 with peptide” value on Erb1/Ytm1 complex [1] amounted to 0.001655 s⁻¹.

Regarding “HDDWVSA [Peptide P4, Ytm1-derived peptide HDDWVSA, residues 110–116]”, on Erb1/Ytm1 complex [1], the “kd (1/s) of Ytm1/Erb1 binding after preincubation of Erb1 with peptide” value amounted to 0.001585 s⁻¹.

Biotin-RGHANKV [Biot-P6]: the figures for the “Binding of Erb1 to immobilized biotinylated peptide” value in the test on Erb1 and with Erb1 (listed as biot-P6) were “could not detect binding” and “did not show binding”, respectively.

For `CC(C)[C@H](NC(=O)[C@H](CS)NC(=O)[C@H](Cc1c[nH]c2ccccc12)NC(=O)[C@@H]1CCCN1C(=O)[C@H](CCC(=O)O)NC(=O)[C@H](CCCNC(=N)N)NC(=O)[C@@H]1CCCN1C(=O)[C@H](Cc1c[nH]cn1)NC(=O)[C@H](Cc1c[nH]c2ccccc12)NC(=O)[C@H](CC(=O)O)NC(=O)CCCC[C@@H]1SC[C@@H]2NC(=O)N[C@@H]21)C(=O)O` [Biot-P3] (Biotin-DWHPREPWCV-OH), the kon on Ytm1 [2] was determined as 829 M⁻¹ s⁻¹.

On to `CC(C)C[C@H](NC(=O)[C@H](CCC(=O)O)NC(=O)[C@H](Cc1c[nH]c2ccccc12)NC(=O)[C@@H](NC(=O)CCCC[C@@H]1SC[C@@H]2NC(=O)N[C@@H]21)C(C)C)C(=O)N[C@@H](CC(C)C)C(=O)N[C@H](C(=O)NCC(=O)N[C@@H](CCCNC(=N)N)C(=O)N[C@@H](CCC(N)=O)C(=O)N[C@H](C(=O)N[C@@H](Cc1c[nH]c2ccccc12)C(=O)O)C(C)C)[C@@H](C)O` [Biot-P1] (Biotin-VWELLTGRQVW-OH), for which, on Ytm1 [2], the kon came to 386 M⁻¹ s⁻¹.

Take “QQTIFRGH [Peptide P2, Erb1-derived peptide QQTIFRGH, residues 445–452]”: the “kd (1/s) of Erb1/Ytm1 binding after preincubation of Ytm1 with peptide” value at Erb1/Ytm1 complex [3] was 0.01393 s⁻¹. Besides, the “Thermal shift (Tm) of Ytm1 in the presence of peptide” value on Ytm1 [4] is reported as “no significant thermal shift”.

B1: Biot-P3 (N-terminally biotinylated Erb1 780-789) (peptide)
peptide: Biotin-DWHPREPWCV
notes: Erb1, Chaetomium thermophilum, residues 780-789; source: synthetic peptide, bought: Synpeptide Co., Ltd., Shanghai
Turning to B1, the Kd (as a rule, the constant that tells how readily two partners part at equilibrium) in test [5] is 6.29 µM. The binding result in test [6] is recorded as “binds”.

B2: Biot-P1 (N-terminally biotinylated Erb1 479-489) (peptide)
peptide: Biotin-VWELLTGRQVW
notes: Erb1, Chaetomium thermophilum, residues 479-489; source: synthetic peptide, bought: Synpeptide Co., Ltd., Shanghai
As to B2, binding in test [5] was put at a Kd of 33.4 µM. Moreover, the binding result in test [6] is given as “binds”.

B3: Peptide P1 (Erb1 479-489) (peptide)
peptide: VWELLTGRQVW
notes: as for B2
As for B3, binding in test [7] was characterised by a dissociation constant (Kd) of 8.2 µM.
